From PMC6364417, “Kinase inhibitor library screening identifies synergistic drug combinations effective in sensitive and resistant melanoma cells” (Journal of Experimental & Clinical Cancer Research : CR, 2019)

Assays:
Assay in all cases: Kinase inhibitor library screening, PrestoBlue cell viability, 1 or 10 μM, 72 h
501Mel cells (parental) = conditions: 501Mel Parental, 72 h
Procedure: (§1) After 72 h of treatment, cell viability was assessed using the PrestoBlue Cell Viability Reagent (ThermoFisher Scientific). Measurements were performed with the CLARIOstar Monochromator microplate reader (BMG Labtech).
(§2) Kinase inhibitor library screening. […] Each cell line was treated in its sensitive form (parental), and also as 2 resistant derivatives, which were made resistant to either Vemurafenib (XP) or Dabrafenib (GP). Drugs were added at 2 different concentrations, 1 and 10 μM, for 72 h and cell viability was assessed using the PrestoBlue Cell Viability assay. Results are depicted as % viability compared to untreated cells. Each cell line was analyzed at least in duplicate. […] (XLSX 95 kb)

[1] = tested on: 501Mel-GP cells (Dabrafenib-resistant); conditions: 501Mel GP, 72 h
Procedure: as §1, §2

[2] = tested on: 501Mel-XP cells (Vemurafenib-resistant); conditions: 501Mel XP, 72 h
Procedure: as §1, §2

A375 cells (parental) = conditions: A375 Parental, 72 h
Procedure: as §1, §2

[3] = tested on: A375-GP cells (Dabrafenib-resistant); conditions: A375 GP, 72 h
Procedure: as §1, §2

[4] = tested on: A375-XP cells (Vemurafenib-resistant); conditions: A375 XP, 72 h
Procedure: as §1, §2

IGR37 cells (parental) = conditions: IGR37 Parental, 72 h
Procedure: as §1, §2

[5] = tested on: IGR37-GP cells (Dabrafenib-resistant); conditions: IGR37 GP, 72 h
Procedure: as §1, §2

[6] = tested on: IGR37-XP cells (Vemurafenib-resistant); conditions: IGR37 XP, 72 h
Procedure: as §1, §2

Structure (SMILES) | cell viability (kinase inhibitor library screening) (501Mel cells (parental); 1μΜ) [%] | cell viability (kinase inhibitor library screening) (501Mel cells (parental); 10μΜ) [%] | cell viability (kinase inhibitor library screening) ([1]; 1μΜ) [%] | cell viability (kinase inhibitor library screening) ([1]; 10μΜ) [%] | cell viability (kinase inhibitor library screening) ([2]; 1μΜ) [%] | cell viability (kinase inhibitor library screening) ([2]; 10μΜ) [%] | cell viability (kinase inhibitor library screening) (A375 cells (parental); 10μΜ) [%] | cell viability (kinase inhibitor library screening) ([3]; 10μΜ) [%] | cell viability (kinase inhibitor library screening) ([4]; 1μΜ) [%] | cell viability (kinase inhibitor library screening) ([4]; 10μΜ) [%] | cell viability (kinase inhibitor library screening) (IGR37 cells (parental); 1μΜ) [%] | cell viability (kinase inhibitor library screening) (IGR37 cells (parental); 10μΜ) [%] | cell viability (kinase inhibitor library screening) ([5]; 1μΜ) [%] | cell viability (kinase inhibitor library screening) ([5]; 10μΜ) [%] | cell viability (kinase inhibitor library screening) ([6]; 1μΜ) [%] | cell viability (kinase inhibitor library screening) ([6]; 10μΜ) [%] | cell viability (kinase inhibitor library screening) ([3]; 1μΜ) [%] | also measured
Nc1nccc(Oc2ccc(NC(=O)c3c[nH]cc(-c4ccc(F)cc4)c3=O)cc2F)c1Cl [BMS 794833] | 95.9 | 83.2 | 90.0 | 70.5 | 91.8 | 52.9 | 63.8 | 85.8 | 104.8 | 96.9 | 106.3 | 97.3 | 94.1 | 90.1 | 103.7 | 63.5 | – | –
CCCCOc1c(C(=O)c2c(F)cc(C)cc2F)c[nH]c2nncc1-2 [BMS-265246] | 92.4 | 77.7 | 94.2 | 52.8 | 87.1 | 32.9 | 49.0 | 40.3 | 94.5 | 71.7 | 91.7 | 91.8 | 90.7 | 83.4 | 85.9 | 48.1 | 93.5 | cell viability (kinase inhibitor library screening) (A375 cells (parental); 1μΜ): 91.4%
Cc1c(NC(=O)OC[C@@H]2COCCN2)cn2ncnc(Nc3ccc4c(cnn4Cc4cccc(F)c4)c3)c12 [BMS-599626 (AC480)] | – | – | – | – | – | – | – | – | – | – | – | – | – | – | – | – | – | cell viability, 501Mel Parental, 1μΜ (501Mel cells (parental); 1μΜ, in %): 99.1; cell viability, 501Mel Parental, 10μΜ (501Mel cells (parental); 10μΜ, in %): 87.7; cell viability, 501Mel GP, 1μΜ ([1]; 1μΜ, in %): 106.6; cell viability, 501Mel GP, 10μΜ ([1]; 10μΜ, in %): 91.5; cell viability, 501Mel XP, 1μΜ ([2]; 1μΜ, in %): 93.0; cell viability, 501Mel XP, 10μΜ ([2]; 10μΜ, in %): 61.8; cell viability, A375 Parental, 1μΜ (A375 cells (parental); 1μΜ, in %): 103.3; cell viability, A375 Parental, 10μΜ (A375 cells (parental); 10μΜ, in %): 84.6; cell viability, A375 GP, 10μΜ ([3]; 10μΜ, in %): 84.2; cell viability, A375 XP, 1μΜ ([4]; 1μΜ, in %): 107.8; cell viability, A375 XP, 10μΜ ([4]; 10μΜ, in %): 91.0; cell viability, IGR37 Parental, 1μΜ (IGR37 cells (parental); 1μΜ, in %): 109.0; cell viability, IGR37 Parental, 10μΜ (IGR37 cells (parental); 10μΜ, in %): 92.5; cell viability, IGR37 GP, 10μΜ ([5]; 10μΜ): 75%; cell viability, IGR37 GP, 1μΜ ([5]; 1μΜ, in %): 95.5; cell viability, IGR37 XP, 10μΜ ([6]; 10μΜ): 48.2%; cell viability, IGR37 XP, 1μΜ ([6]; 1μΜ, in %): 96.7
CC(C)c1cnn2c(NCc3ccccc3)cc(NCCCCCCN)nc12.Cl [BS-181 HCl] | 97.6 | 87.4 | 108.6 | 87.7 | 98.4 | 55.9 | 91.6 | 84.9 | 112.1 | 92.4 | 98.6 | – | 92.7 | 81.4 | 97.6 | 59.8 | 105.9 | –
